{"source": "patent US10927141B2", "about": "(priority 2018, dated 2021)", "key": {"[1]": {"assay": "Bulk density for salts of Compound 1", "assay_type": "physicochemical", "details": "Form A"}, "[2]": {"assay_type": "physicochemical", "details": "1 w", "description": "For each salt, approximately 5 mg compound was added into an 8 mL glass vial with a multi-hole aluminum foil cap, and kept at 60° C., 40° C./75% RH for 1 week. […] Appearance by visual observation were recorded followed by purity assessment and XPRD data collection on the residual solids."}, "[3]": {"assay": "Dynamic vapor sorption (DVS), gravimetric moisture sorption", "assay_type": "physicochemical", "details": "at 80% Relative Humidity, 25° C.", "description": "Dynamic Vapor Sorption (DVS) were collected conducted using an SMS DVS Advantage 1 system. For each sample analyzed approximately 10 mg of material was transferred into the DVS instrument and recorded the weight change with respect to the atmospheric humidity at 25° C. using the following parameters: Equilibrium dm/dt: 0.01%/min, (for min: 10 min and max: 180 min); drying setting were 0% RH for 120 min; RH (%) measurement step at 10% and RH (%) measurement step scope of 0-90-0%."}, "[4]": {"assay_type": "physicochemical"}, "[5]": {"assay_type": "physicochemical", "details": "for Final pH: 37° C., 24 h"}, "[6]": {"details": "40° C./75% RH, listed as Hydrobromide (Form A)"}, "[7]": {"details": "60° C., listed as Hydrobromide (Form A)"}, "[8]": {"details": "1.2 million lux-hrs, listed as Hydrobromide (Form A)"}, "[9]": {"details": "Dark control, listed as Hydrobromide (Form A)"}, "[10]": {"details": "40° C./75% RH, listed as Hydrobromide (Form C)"}, "[11]": {"details": "60° C., listed as Hydrobromide (Form C)"}, "[12]": {"details": "1.2 million lux-hrs, listed as Hydrobromide (Form C)"}, "[13]": {"details": "Dark control, listed as Hydrobromide (Form C)"}}, "note": "Like-named read-outs stand apart in the source and are kept apart here.", "data": [{"smiles": "O=C(O)CC(O)(CC(=O)O)C(=O)O", "note": "[Citrate]", "values": [{"measurement": "Bulk Density", "setting": "[1]", "result": 0.49, "unit": "g/mL"}, {"measurement": "Tapped Density", "setting": "[1]", "result": 0.70, "unit": "g/mL"}]}, {"smiles": "COC[C@@]1(O)CC[C@@]2(C)[C@@H](CC[C@@H]3[C@@H]2CC[C@]2(C)[C@@H](C(=O)Cn4ccnc4)CC[C@@H]32)C1.O=C(O)CC(O)(CC(=O)O)C(=O)O", "note": "[Compound 1 Citrate (Form A)]", "values": [{"measurement": "Final purity", "setting": "[2]; 40° C./75% RH", "result": 99.4}, {"measurement": "XRPD pattern", "setting": "[2]; 40° C./75% RH", "result": "Form A"}, {"measurement": "Final purity", "setting": "[2]; 60° C.", "result": 99.5}, {"measurement": "XRPD pattern", "setting": "[2]; 60° C.", "result": "Form A"}, {"measurement": "gravimetric moisture sorption", "setting": "[3]", "result": "about 3.6 % (by weight)"}, {"measurement": "Final purity", "setting": "[4]; 1.2 million lux-hrs", "result": 99.5}, {"measurement": "XRPD pattern", "setting": "[4]; 1.2 million lux-hrs", "result": "Form A"}, {"measurement": "Final purity", "setting": "[4]; Dark control", "result": 99.5}, {"measurement": "XRPD pattern", "setting": "[4]; Dark control", "result": "Form A"}]}, {"smiles": "COC[C@@]1(O)CC[C@@]2(C)[C@@H](CC[C@@H]3[C@@H]2CC[C@]2(C)[C@@H](C(=O)Cn4ccnc4)CC[C@@H]32)C1.O=C(O)CC(O)(CC(=O)O)C(=O)O", "note": "[Compound 1 Citrate (Form B)]", "values": [{"measurement": "Final purity", "setting": "[2]; 40° C./75% RH", "result": 98.3}, {"measurement": "XRPD pattern", "setting": "[2]; 40° C./75% RH", "result": "Form B"}, {"measurement": "Final purity", "setting": "[2]; 60° C.", "result": 97.7}, {"measurement": "XRPD pattern", "setting": "[2]; 60° C.", "result": "Form B"}, {"measurement": "gravimetric moisture sorption", "setting": "[3]", "result": "about 2.8 % (by weight)"}, {"measurement": "Final purity", "setting": "[4]; 1.2 million lux-hrs", "result": 99.3}, {"measurement": "XRPD pattern", "setting": "[4]; 1.2 million lux-hrs", "result": "Form B"}, {"measurement": "Final purity", "setting": "[4]; Dark control", "result": 99.1}, {"measurement": "XRPD pattern", "setting": "[4]; Dark control", "result": "Form B"}]}, {"smiles": "Br.COC[C@@]1(O)CC[C@@]2(C)[C@@H](CC[C@@H]3[C@@H]2CC[C@]2(C)[C@@H](C(=O)Cn4ccnc4)CC[C@@H]32)C1", "note": "[Compound 1 HBr (Form A)]", "values": [{"measurement": "Final purity", "setting": "[2]; [6]", "result": 98.2}, {"measurement": "XRPD pattern", "setting": "[2]; [6]", "result": "Form A"}, {"measurement": "Final purity", "setting": "[2]; [7]", "result": 98.0}, {"measurement": "XRPD pattern", "setting": "[2]; [7]", "result": "Form A"}, {"measurement": "Final pH", "setting": "[5]; FaSSIF (original pH = 6.51), listed as Hydrobromide (Form A)", "result": 4.11}, {"measurement": "Final pH", "setting": "[5]; FeSSIF (original pH = 4.99), listed as Hydrobromide (Form A)", "result": 5.01}, {"measurement": "Final pH", "setting": "[5]; SGF (original pH = 1.82)", "result": 1.91}, {"measurement": "gravimetric moisture sorption", "setting": "[3]", "result": "about 1.1 % (by weight)"}, {"measurement": "Final purity", "setting": "[4]; [8]", "result": 98.2}, {"measurement": "XRPD pattern", "setting": "[4]; [8]", "result": "Form A"}, {"measurement": "Final purity", "setting": "[4]; [9]", "result": 97.9}, {"measurement": "XRPD pattern", "setting": "[4]; [9]", "result": "Form A"}]}, {"smiles": "Br.COCC1(O)CCC2(C)C(CCC3C2CCC2(C)C(C(=O)Cn4ccnc4)CCC32)C1", "note": "(stereo not shown) [Compound 1 HBr (Form B)]", "values": [{"measurement": "Final purity", "setting": "[2]; 40° C./75% RH", "result": 98.9}, {"measurement": "XRPD pattern", "setting": "[2]; 40° C./75% RH", "result": "Form B"}, {"measurement": "Final purity", "setting": "[2]; 60° C.", "result": 98.8}, {"measurement": "XRPD pattern", "setting": "[2]; 60° C.", "result": "Form B"}, {"measurement": "Final pH", "setting": "[5]; FaSSIF (original pH = 6.51)", "result": 5.51}, {"measurement": "Final pH", "setting": "[5]; FeSSIF (original pH = 4.99)", "result": 4.89}, {"measurement": "Final pH", "setting": "[5]; SGF (original pH = 1.82)", "result": 1.89}, {"measurement": "gravimetric moisture sorption", "setting": "[3]", "result": "about 0.2 % (by weight)"}, {"measurement": "Final purity", "setting": "[4]; 1.2 million lux-hrs", "result": 98.4}, {"measurement": "XRPD pattern", "setting": "[4]; 1.2 million lux-hrs", "result": "Form B"}, {"measurement": "Final purity", "setting": "[4]; Dark control", "result": 97.8}, {"measurement": "XRPD pattern", "setting": "[4]; Dark control", "result": "Form B"}]}, {"smiles": "Br.COC[C@@]1(O)CC[C@@]2(C)[C@@H](CC[C@@H]3[C@@H]2CC[C@]2(C)[C@@H](C(=O)Cn4ccnc4)CC[C@@H]32)C1", "note": "[Compound 1 HBr (Form C)]", "values": [{"measurement": "Final purity", "setting": "[2]; [10]", "result": 98.4}, {"measurement": "XRPD pattern", "setting": "[2]; [10]", "result": "Form C + B"}, {"measurement": "Final purity", "setting": "[2]; [11]", "result": 98.1}, {"measurement": "XRPD pattern", "setting": "[2]; [11]", "result": "Form C + B"}, {"measurement": "Final pH", "setting": "[5]; FaSSIF (original pH = 6.51), listed as Hydrobromide (Form C)", "result": 4.90}, {"measurement": "Final pH", "setting": "[5]; FeSSIF (original pH = 4.99), listed as Hydrobromide (Form C)", "result": 5.05}, {"measurement": "Final pH", "setting": "[5]; SGF (original pH = 1.82), listed as Hydrobromide (Form C)", "result": 1.99}, {"measurement": "gravimetric moisture sorption", "setting": "[3]", "result": "about 0.25 % (by weight)"}, {"measurement": "Final purity", "setting": "[4]; [12]", "result": 98.1}, {"measurement": "XRPD pattern", "setting": "[4]; [12]", "result": "Form C + B"}, {"measurement": "Final purity", "setting": "[4]; [13]", "result": 98.0}, {"measurement": "XRPD pattern", "setting": "[4]; [13]", "result": "Form C + B"}]}, {"smiles": "COC[C@@]1(O)CC[C@@]2(C)[C@@H](CC[C@@H]3[C@@H]2CC[C@]2(C)[C@@H](C(=O)Cn4ccnc4)CC[C@@H]32)C1.O=S(=O)(O)O", "note": "[Compound 1 Sulfate (Form A)]", "values": [{"measurement": "gravimetric moisture sorption", "setting": "[3]", "result": "about 6.2 % (by weight)"}]}, {"smiles": "COCC1(O)CCC2(C)C(CCC3C2CCC2(C)C(C(=O)Cn4ccnc4)CCC32)C1.Cc1ccc(S(=O)(=O)O)cc1", "note": "(stereo not shown) [Compound 1 Tosylate (Form A)]", "values": [{"measurement": "gravimetric moisture sorption", "setting": "[3]", "result": "about 1.5 % (by weight)"}]}, {"smiles": "Br.COC[C@@]1(O)CC[C@@]2(C)[C@@H](CC[C@@H]3[C@@H]2CC[C@]2(C)[C@@H](C(=O)Cn4ccnc4)CC[C@@H]32)C1", "note": "[HBr]", "values": [{"measurement": "Bulk Density", "setting": "[1]", "result": 0.27, "unit": "g/mL"}, {"measurement": "Tapped Density", "setting": "[1]", "result": 0.50, "unit": "g/mL"}]}, {"smiles": "COCC1(O)CCC2(C)C(CCC3C2CCC2(C)C(C(=O)Cn4ccnc4)CCC32)C1.O=P(O)(O)O", "note": "(stereo not shown) [Phosphate]", "values": [{"measurement": "Bulk Density", "setting": "[1]", "result": 0.15, "unit": "g/mL"}, {"measurement": "Tapped Density", "setting": "[1]", "result": 0.33, "unit": "g/mL"}]}, {"smiles": "O=C(O)C(O)C(O)C(=O)O", "note": "(stereo not shown) [Tartrate]", "values": [{"measurement": "Bulk Density", "setting": "[1]", "result": 0.13, "unit": "g/mL"}, {"measurement": "Tapped Density", "setting": "[1]", "result": 0.32, "unit": "g/mL"}]}, {"smiles": "COCC1(O)CCC2(C)C(CCC3C2CCC2(C)C(C(=O)Cn4ccnc4)CCC32)C1.Nc1ccc(C(=O)O)c(O)c1", "note": "(stereo not shown) [p-Aminosalicylate (Form A)]", "values": [{"measurement": "Final pH (FaSSIF)", "setting": "[5]; FaSSIF (original pH = 6.51), after solubility test", "result": 5.12}, {"measurement": "Final pH (FeSSIF)", "setting": "[5]; FeSSIF (original pH = 4.99), after solubility test", "result": 5.06}, {"measurement": "Final pH (SGF)", "setting": "[5]; SGF (original pH = 1.82), after solubility test", "result": 3.73}]}]}
